According to patent US20230248626A1, “Compositions Comprising (Bio)-Alkanediols” (Symrise AG, priority 0001, published 2023):
≈ marks a conversion by molar mass, not a printed value.

Tests used:
Assay type in all cases: cell-based
Candida albicans = test: MIC test (growth inhibition, 96 well plates, OD); details: read-out: Minimum Inhibitory Concentration (MIC)
Protocol: (§1) The MIC test is a test on growth inhibition. Estimation of Minimum Inhibitory Concentration (MIC) is executed in 96 well plates. Through the comparison of bacterial growth with positive and negative controls via optical density (OD), different concentrations of given test substances are evaluated.
(§2) Bacteria are cultivated under adjusted conditions based on information of the German Collection of Microorganisms and Cell Cultures (DSMZ) and stored in 50% Glycerol prior to use. Afterwards, the following method was applied: Adding growth medium (according to microorganism) to each well of the microplate. Adding the test-substances in different concentrations, positive controls (water controls only with medium) and negative controls (benchmarks according to organism). Adding the microorganism in a concentration of 10^6 CFU/ml (CFU=colony forming units). Incubation of the microplates at appropriate conditions.
(§3) According to resulting growth, substance concentrations are labelled either as inhibiting or not and MIC is defined as the lowest concentration where a complete growth inhibition is visible. Experiments at concentration limits (highest concentration labelled as growth and lowest concentration labelled as inhibiting) are performed at least twice.

Corynebacterium jeikeium = test: MIC test (growth inhibition, 96 well plates, OD); details: read-out: Minimum Inhibitory Concentration (MIC)
Protocol: as §1, §2, §3

Escherichia coli = test: MIC test (growth inhibition, 96 well plates, OD); details: read-out: Minimum Inhibitory Concentration (MIC)
Protocol: as §1, §2, §3

Propionibacterium acnes = test: MIC test (growth inhibition, 96 well plates, OD); details: Cutibacterium acnes; read-out: Minimum Inhibitory Concentration (MIC)
Protocol: as §1, §2, §3

Staphylococcus aureus = test: MIC test (growth inhibition, 96 well plates, OD); details: read-out: Minimum Inhibitory Concentration (MIC)
Protocol: as §1, §2, §3

Staphylococcus hominis = test: MIC test (growth inhibition, 96 well plates, OD); details: read-out: Minimum Inhibitory Concentration (MIC)
Protocol: as §1, §2, §3

Aspergillus brasiliensis = test: MIC and Kull synergy index of 1,2-/2,3-alkanediol mixtures; details: single 2,3-alkanediol, read-out: MIC Component B
[1] = test system: Aspergillus brasiliensis (AB); test: Preservation efficacy test (PET), European Pharmacopoeia 5.1.3
Protocol: (§4) The preservation efficacy test (PET) was performed in accordance with European Pharmacopoeia § 5.1.3: The test is a reference European Pharmacopoeia method, that is to be used to evaluate the preservation system of a cosmetic or pharmaceutical preparation. The test consists of challenging the preparation under test, with prescribed inoculums of suitable microorganisms. The preservation porperties of the preparation are adequate if, in the conditions of the test, there is a significant fall or no increase, as appropriate, in the number of microorganisms in the inoculated preparations after the time prescribed.
(§5) The test microorganisms which were used, are the following:
(§6) Pseudomonas aeruginosa (PA) (bacterium); Staphylococcus aureus (SA) (bacterium); Escherichia coli (EC) (bacterium); Candida albicans (CA) (yeast); and Aspergillus brasiliensis (AB) (fungus).

Candida albicans (CA) = test: as above
Protocol: as §4, §5, §6

Escherichia coli (EC) = test: as above
Protocol: as §4, §5, §6

[2] = test system: Pseudomonas aeruginosa (PA); test: as above
Protocol: as §4, §5, §6

[3] = test system: Staphylococcus aureus (SA); test: as above
Protocol: as §4, §5, §6

- MIC (Candida albicans): > 5000 µg/mL
- MIC (Corynebacterium jeikeium): > 5000 µg/mL
- MIC (Escherichia coli): > 5000 µg/mL
- MIC (Propionibacterium acnes): > 5000 µg/mL
- MIC (Staphylococcus aureus): 20 mg/mL (≈ 151 mM)
- MIC (Staphylococcus hominis): > 5000 µg/mL
- MIC (Aspergillus brasiliensis): 7500 µg/mL
Structure (SMILES): CCCCC(O)C(C)O (stereo not drawn) [2,3-heptanediol]
- number of microorganisms after 2 days ([1]; 0.1% in shampoo): 1,600,000
- number of microorganisms after 7 days ([1]; 0.1% in shampoo): 970,000
- number of microorganisms after 14 days ([1]; 0.1% in shampoo): 110,000
- number of microorganisms after 28 days ([1]; 0.1% in shampoo): 120,000
- number of microorganisms after 2 days ([1]; 0.2% in o/w emulsion): 1,600,000
- number of microorganisms after 7 days ([1]; 0.2% in o/w emulsion): 1,600,000
- number of microorganisms after 14 days ([1]; 0.2% in o/w emulsion): 3,000,000
- number of microorganisms after 28 days ([1]; 0.2% in o/w emulsion): 2,000,000
- number of microorganisms after 2 days ([1]; 0.4% in o/w emulsion): 790,000
- number of microorganisms after 7 days ([1]; 0.4% in o/w emulsion): 930,000
- number of microorganisms after 14 days ([1]; 0.4% in o/w emulsion): 500,000
- number of microorganisms after 28 days ([1]; 0.4% in o/w emulsion): 390,000
- number of microorganisms after 2 days ([1]; 0.4% in shampoo): 2,200,000
- number of microorganisms after 7 days ([1]; 0.4% in shampoo): 350,000
- number of microorganisms after 14 days ([1]; 0.4% in shampoo): 130,000
- number of microorganisms after 28 days ([1]; 0.4% in shampoo): 140,000
- number of microorganisms after 2 days (Candida albicans (CA); 0.1% in shampoo): 110,000
- number of microorganisms after 7 days (Candida albicans (CA); 0.1% in shampoo): 20,000
- number of microorganisms after 14 days (Candida albicans (CA); 0.1% in shampoo): 100
- number of microorganisms after 28 days (Candida albicans (CA); 0.1% in shampoo): 1
- number of microorganisms after 2 days (Candida albicans (CA); 0.2% in o/w emulsion): 1,900,000
- number of microorganisms after 7 days (Candida albicans (CA); 0.2% in o/w emulsion): 2,200,000
- number of microorganisms after 14 days (Candida albicans (CA); 0.2% in o/w emulsion): 2,100,000
- number of microorganisms after 28 days (Candida albicans (CA); 0.2% in o/w emulsion): 370,000
- number of microorganisms after 2 days (Candida albicans (CA); 0.4% in o/w emulsion): 640,000
- number of microorganisms after 7 days (Candida albicans (CA); 0.4% in o/w emulsion): 350,000
- number of microorganisms after 14 days (Candida albicans (CA); 0.4% in o/w emulsion): 130,000
- number of microorganisms after 28 days (Candida albicans (CA); 0.4% in o/w emulsion): 11,000
- number of microorganisms after 2 days (Candida albicans (CA); 0.4% in shampoo): 81
- number of microorganisms after 7 days (Candida albicans (CA); 0.4% in shampoo): 1
- number of microorganisms after 14 days (Candida albicans (CA); 0.4% in shampoo): 1
- number of microorganisms after 28 days (Candida albicans (CA); 0.4% in shampoo): 1
- number of microorganisms after 2 days (Escherichia coli (EC); 0.1% in shampoo): 1,100,000
- number of microorganisms after 7 days (Escherichia coli (EC); 0.1% in shampoo): 1,500,000
- number of microorganisms after 14 days (Escherichia coli (EC); 0.1% in shampoo): 1,600,000
- number of microorganisms after 28 days (Escherichia coli (EC); 0.1% in shampoo): 1,400,000
- number of microorganisms after 2 days (Escherichia coli (EC); 0.2% in o/w emulsion): 170,000
- number of microorganisms after 7 days (Escherichia coli (EC); 0.2% in o/w emulsion): 1,600
- number of microorganisms after 14 days (Escherichia coli (EC); 0.2% in o/w emulsion): 82
- number of microorganisms after 28 days (Escherichia coli (EC); 0.2% in o/w emulsion): 1
- number of microorganisms after 2 days (Escherichia coli (EC); 0.4% in o/w emulsion): 320,000
- number of microorganisms after 7 days (Escherichia coli (EC); 0.4% in o/w emulsion): 2,400
- number of microorganisms after 14 days (Escherichia coli (EC); 0.4% in o/w emulsion): 1
- number of microorganisms after 28 days (Escherichia coli (EC); 0.4% in o/w emulsion): 1
- number of microorganisms after 2 days (Escherichia coli (EC); 0.4% in shampoo): 1,200,000
- number of microorganisms after 7 days (Escherichia coli (EC); 0.4% in shampoo): 100,000
- number of microorganisms after 14 days (Escherichia coli (EC); 0.4% in shampoo): 75,000
- number of microorganisms after 28 days (Escherichia coli (EC); 0.4% in shampoo): 380,000
- number of microorganisms after 2 days ([2]; 0.1% in shampoo): 230,000
- number of microorganisms after 7 days ([2]; 0.1% in shampoo): 730,000
- number of microorganisms after 14 days ([2]; 0.1% in shampoo): 3,500,000
- number of microorganisms after 28 days ([2]; 0.1% in shampoo): 7,000,000
- number of microorganisms after 2 days ([2]; 0.2% in o/w emulsion): 1
- number of microorganisms after 7 days ([2]; 0.2% in o/w emulsion): 1
- number of microorganisms after 14 days ([2]; 0.2% in o/w emulsion): 1
- number of microorganisms after 28 days ([2]; 0.2% in o/w emulsion): 1
- number of microorganisms after 2 days ([2]; 0.4% in o/w emulsion): 1
- number of microorganisms after 7 days ([2]; 0.4% in o/w emulsion): 1
- number of microorganisms after 14 days ([2]; 0.4% in o/w emulsion): 1
- number of microorganisms after 28 days ([2]; 0.4% in o/w emulsion): 1
- number of microorganisms after 2 days ([2]; 0.4% in shampoo): 2,900
- number of microorganisms after 7 days ([2]; 0.4% in shampoo): 1
- number of microorganisms after 14 days ([2]; 0.4% in shampoo): 1
- number of microorganisms after 28 days ([2]; 0.4% in shampoo): 1
- number of microorganisms after 2 days ([3]; 0.1% in shampoo): 27,000
- number of microorganisms after 7 days ([3]; 0.1% in shampoo): 490
- number of microorganisms after 14 days ([3]; 0.1% in shampoo): 1
- number of microorganisms after 28 days ([3]; 0.1% in shampoo): 1
- number of microorganisms after 2 days ([3]; 0.2% in o/w emulsion): 1,300,000
- number of microorganisms after 7 days ([3]; 0.2% in o/w emulsion): 790,000
- number of microorganisms after 14 days ([3]; 0.2% in o/w emulsion): 55
- number of microorganisms after 28 days ([3]; 0.2% in o/w emulsion): 1
- number of microorganisms after 2 days ([3]; 0.4% in o/w emulsion): 1,000,000
- number of microorganisms after 7 days ([3]; 0.4% in o/w emulsion): 12,000
- number of microorganisms after 14 days ([3]; 0.4% in o/w emulsion): 1
- number of microorganisms after 28 days ([3]; 0.4% in o/w emulsion): 1
- number of microorganisms after 2 days ([3]; 0.4% in shampoo): 3,500
- number of microorganisms after 7 days ([3]; 0.4% in shampoo): 1
- number of microorganisms after 14 days ([3]; 0.4% in shampoo): 1
- number of microorganisms after 28 days ([3]; 0.4% in shampoo): 1
